Experimental data: US10221255B2, “Composition for the immediate stopping of a free-radical polymerization” (BASF SE, priority 2015, dated 2019)

experiment: Hansen solubility parameters and solubility distance Ra of solvents; type: physicochemical; parameters: key: solubility distance Ra in MPa^1/2; settings: solubility distance calculated from formula 1
Excerpt: The value will hereinafter also be referred to as solubility distance Ra. The definition and calculation of the solubility parameters in the three-dimensional Hansen solubility space are described in: C. M. Hansen: “The three dimensional solubility parameters” J. Paint Technol. […] In this Hansen space, δD denotes the LONDON dispersion forces, δP denotes the Debye interaction forces between permanent dipoles and also the Keesom interaction forces between induced and permanent dipoles and δH denotes the specific interaction forces (hydrogen bonds, acid/base, donor/acceptor, etc.). The unit of the parts of the parameters is in each case [MPa^1/2].
The Hansen solubility parameters for many solvents are tabulated in standard works such as Hansen Solubility Parameters: A User's Handbook, C. […] It is also possible to use known modeling software, for example HSPIP 3.1.14 (3rd Edition), developed and marketed by C. M. Hansen, in order to calculate the Hansen solubility parameters on the basis of the chemical structure of the solvent.

Molecule	Ra
CC#N [Acetonitrile]	7.8
N#Cc1ccccc1 [Benzonitrile]	4.6
O=C1CCCCC1 [Cyclohexanone]	3.2
C[S+](C)[O-] [DMSO]	7.4
CCCCC(CC)COC(=O)CCCCC(=O)OCC(CC)CCCC (centres unmarked) [Di(2-ethylhexyl) adipate]	6.8
CCCCOC(=O)CCCCC(=O)OCCCC [Dibutyl adipate (Cetiol B), Dibutyl adipate]	6.8
COC(=O)CCC(=O)OC [Dimethyl succinate]	4.7
COCC(C)OCC(C)OC (centres unmarked) [Dipropylene glycol dimethyl ether]	7.1
COC(=O)c1ccccc1 [Methyl benzoate]	4.9
CCCCC(C)=O [Methyl butyl ketone]	6.3
C1COCCN1 [Morpholine]	8.1
Cn1ccnc1 [N-Methylimidazole]	8.8
CN1CCCC1=O [N-Methylpyrrolidone]	8.2
O=C1CCCO1 [γ-Butyrolactone]	6.1

experiment: Solubility of phenothiazine in ionic liquid/solvent mixtures relative to pure solvent; settings: 20% by weight ionic liquid, 80% by weight solvent; room temperature; FIGS. 1 to 4
Protocol: In the same way, the solubility of phenothiazine in the pure solvent was determined.

Molecule	relative solubility of phenothiazine in a mixture of ionic liquid and solvent, based on the solubility in the pure solvent
OCCO [Ethylene glycol]	only a small solubility-increasing effect or solubility-reducing effect

experiment: Phase diagram of the system phenothiazine/proglyme/EMIM acetate; type: physicochemical; settings: room temperature, FIG. 5
Protocol: (§1) The phase diagram (triangular diagram) of the system phenothiazine/proglyme/EMIM acetate was determined at room temperature. In the triangular diagram, the corners correspond to the pure materials. The sides of the triangle correspond to two-component mixtures. The proportions of phenothiazine/proglyme/EMIM acetate at any point P are given by the intersections of the parallels to the side through P with the other sides. The phase behavior (single-phase, two phases liquid/liquid, two phases solid/liquid, three-phase) at selected points is indicated by symbols.

Molecule	phase behavior (compatibility of ionic liquid and solvent)	solubility of phenothiazine in the solvent on addition of ionic liquid
c1ccc2c(c1)Nc1ccccc1S2 [phenothiazine]	an incompatibility between the ionic liquid and the solvent (formation of two liquid phases) is eliminated by the addition of phenothiazine above a particular concentration	even small additions of the ionic liquid increase the solubility of phenothiazine in the solvent, with a linear increase up to the solubility in the pure ionic liquid

experiment: Phase diagram of the system phenothiazine/proglyme/EMIM ethylsulfate; type: physicochemical; settings: room temperature, FIG. 6
Protocol: as §1, with “phenothiazine/proglyme/EMIM ethylsulfate” for “phenothiazine/proglyme/EMIM acetate”, “the sides” for “the side”

Molecule	phase behavior (compatibility of ionic liquid and solvent)	solubility of phenothiazine in the solvent on addition of ionic liquid
c1ccc2c(c1)Nc1ccccc1S2 [phenothiazine]	an incompatibility between the ionic liquid and the solvent (formation of two liquid phases) is eliminated by the addition of phenothiazine above a particular concentration	even small additions of the ionic liquid increase the solubility of phenothiazine in the solvent, with a linear increase or a slight synergistic effect up to solubility in the pure ionic liquid

experiment: not given; settings: Hansen solubility parameter, LONDON dispersion forces; room temperature, about 23° C.; cited from earlier work

Molecule	δD
CC#N [Acetonitrile]	15.3 MPa^1/2
N#Cc1ccccc1 [Benzonitrile]	18.8 MPa^1/2
CCCCCCCCCC(=O)N(C)C [C10-fatty acid dimethylamide]	16.6 MPa^1/2
O=C1CCCCC1 [Cyclohexanone]	17.8 MPa^1/2
C[S+](C)[O-] [DMSO]	18.4 MPa^1/2
CCCCC(CC)COC(=O)CCCCC(=O)OCC(CC)CCCC (centres unmarked) [Di(2-ethylhexyl) adipate]	16.2 MPa^1/2
CCCCOC(=O)CCCCC(=O)OCCCC [Dibutyl adipate (Cetiol B), Dibutyl adipate]	16.4 MPa^1/2
COC(=O)CCC(=O)OC [Dimethyl succinate]	16.1 MPa^1/2
COCC(C)OCC(C)OC (centres unmarked) [Dipropylene glycol dimethyl ether]	15.5 MPa^1/2
COC(=O)c1ccccc1 [Methyl benzoate]	18.9 MPa^1/2
CCCCC(C)=O [Methyl butyl ketone]	15.3 MPa^1/2
C1COCCN1 [Morpholine]	18.0 MPa^1/2
Cn1ccnc1 [N-Methylimidazole]	19.7 MPa^1/2
CN1CCCC1=O [N-Methylpyrrolidone]	16.8 MPa^1/2
O=C1CCCO1 [γ-Butyrolactone]	18.0 MPa^1/2

same assay, conditions: Hansen solubility parameter, dipole interaction forces; room temperature, about 23° C.; cited from earlier work

Molecule	δP
CC#N [Acetonitrile]	18.0 MPa^1/2
N#Cc1ccccc1 [Benzonitrile]	12.0 MPa^1/2
CCCCCCCCCC(=O)N(C)C [C10-fatty acid dimethylamide]	6.7 MPa^1/2
O=C1CCCCC1 [Cyclohexanone]	8.4 MPa^1/2
C[S+](C)[O-] [DMSO]	16.4 MPa^1/2
CCCCC(CC)COC(=O)CCCCC(=O)OCC(CC)CCCC (centres unmarked) [Di(2-ethylhexyl) adipate]	4.6 MPa^1/2
CCCCOC(=O)CCCCC(=O)OCCCC [Dibutyl adipate (Cetiol B), Dibutyl adipate]	4.3 MPa^1/2
COC(=O)CCC(=O)OC [Dimethyl succinate]	7.7 MPa^1/2
COCC(C)OCC(C)OC (centres unmarked) [Dipropylene glycol dimethyl ether]	4.6 MPa^1/2
COC(=O)c1ccccc1 [Methyl benzoate]	8.2 MPa^1/2
CCCCC(C)=O [Methyl butyl ketone]	6.1 MPa^1/2
C1COCCN1 [Morpholine]	4.9 MPa^1/2
Cn1ccnc1 [N-Methylimidazole]	15.6 MPa^1/2
CN1CCCC1=O [N-Methylpyrrolidone]	2.8 MPa^1/2
O=C1CCCO1 [γ-Butyrolactone]	16.6 MPa^1/2

same assay, conditions: Hansen solubility parameter, specific interaction forces (hydrogen bonds etc.); room temperature, about 23° C.; cited from earlier work

Molecule	δH
CC#N [Acetonitrile]	6.1 MPa^1/2
N#Cc1ccccc1 [Benzonitrile]	3.3 MPa^1/2
CCCCCCCCCC(=O)N(C)C [C10-fatty acid dimethylamide]	5.7 MPa^1/2
O=C1CCCCC1 [Cyclohexanone]	5.1 MPa^1/2
C[S+](C)[O-] [DMSO]	10.2 MPa^1/2
CCCCC(CC)COC(=O)CCCCC(=O)OCC(CC)CCCC (centres unmarked) [Di(2-ethylhexyl) adipate]	7.7 MPa^1/2
CCCCOC(=O)CCCCC(=O)OCCCC [Dibutyl adipate (Cetiol B), Dibutyl adipate]	5.9 MPa^1/2
COC(=O)CCC(=O)OC [Dimethyl succinate]	8.8 MPa^1/2
COCC(C)OCC(C)OC (centres unmarked) [Dipropylene glycol dimethyl ether]	6.1 MPa^1/2
COC(=O)c1ccccc1 [Methyl benzoate]	4.7 MPa^1/2
CCCCC(C)=O [Methyl butyl ketone]	4.1 MPa^1/2
C1COCCN1 [Morpholine]	11.0 MPa^1/2
Cn1ccnc1 [N-Methylimidazole]	11.2 MPa^1/2
CN1CCCC1=O [N-Methylpyrrolidone]	6.7 MPa^1/2
O=C1CCCO1 [γ-Butyrolactone]	7.4 MPa^1/2

experiment: not given; settings: relative static permittivity, liquid pure substance; cited from earlier work

Molecule	εr at 20° C.
CC#N [Acetonitrile]	36.8
N#Cc1ccccc1 [Benzonitrile]	25.7
CCCCCCCCCC(=O)N(C)C [C10-fatty acid dimethylamide]	13.8
O=C1CCCCC1 [Cyclohexanone]	16.1
C[S+](C)[O-] [DMSO]	47.3
CCCCC(CC)COC(=O)CCCCC(=O)OCC(CC)CCCC (centres unmarked) [Di(2-ethylhexyl) adipate]	2.1
CCCCOC(=O)CCCCC(=O)OCCCC [Dibutyl adipate (Cetiol B), Dibutyl adipate]	3.0
COC(=O)CCC(=O)OC [Dimethyl succinate]	7.3
COCC(C)OCC(C)OC (centres unmarked) [Dipropylene glycol dimethyl ether]	10.4
COC(=O)c1ccccc1 [Methyl benzoate]	6.7
CCCCC(C)=O [Methyl butyl ketone]	14.5
C1COCCN1 [Morpholine]	7.8
Cn1ccnc1 [N-Methylimidazole]	32.0
CN1CCCC1=O [N-Methylpyrrolidone]	32.8
O=S1(=O)CCCC1 [Sulfolane]	42.7
O=C1CCCO1 [γ-Butyrolactone]	41.4

experiment: Heating test in acrylic acid: inhibition period at 120° C. under air; settings: additive 22 ppm, PTZ 20 ppm in acrylic acid, average of three
Protocol: In this example, heating tests in acrylic acid (AA) were carried out. In this test, a sample of acrylic acid is maintained at 120° C. under an air atmosphere and the time until occurrence of turbidity in the solution is determined. The time is considered to be the inhibition period (IP) of the acrylic acid sample.
A part 1 was taken from the pure acrylic acid distillate RD and a stock solution 1 comprising 1000 ppm by weight of phenothiazine (PTZ) was produced with stirring.
40 parts by weight of stock solution 1 were mixed with 960 parts by weight of the pure acrylic acid distillate RD so as to give the stock solution 3. Part of this stock solution 3 was divided into identical samples having volumes of 1 ml.
Samples taken from the stock solutions 2 were combined with the various 1 ml samples obtained from the stock solutions 3 in such a way that the desired compositions of acrylic acid, phenothiazine (PTZ), ionic liquids IL, solvents LM or mixtures IL/LM of ionic liquids IL with solvents LM were obtained by doping. The doped samples produced in this way were provided for further examination on the same day. For repeat measurements, fresh doped samples were produced in order to minimize the influence of the acrylic acid oligomers obtained by Michael oligomerization.
To examine the polymerization tendency of the respective doped sample, three HPLC vials (transparent vessels having a fill volume of 1.5 ml) were in each case charged with 0.5 ml of the respective sample under air and subsequently tightly closed by means of a crimped cap. Immediately after production, in each case up to 92 vials charged as described were hung in a holder made for this purpose and kept at a temperature of 120° C. in a convection drying oven while the holder rotated at six revolutions per minute in order to ensure complete mixing in the vials (the liquid content of the respective vial came into contact with the crimped cap six times per minute). The time T to complete polymerization of the respective sample in the associated vial was then measured. For this purpose, the samples in the vials in the drying oven were monitored by means of a digital video camera and the video film was subsequently evaluated visually.
Three associated values of T were determined in this way for each doped sample and these were arithmetically averaged.
When mixtures of ionic liquid and solvent were used as additive, the weight ratio of ionic liquid to solvent or to the solvent mixture (IL/LM) was 20/80.

Molecule	Inhibiting period
tetrabutylammonium [2-(2-methoxyethoxy)ethoxy]acetate [TBA ether carboxylate]	378 min

same assay, conditions: additive 29 ppm, PTZ 20 ppm in acrylic acid, average of three

Molecule	Inhibiting period
N-ethyl-N′-methylimidazolium ethylsulfate [EMIM ethylsulfate]	386 min

same assay, conditions: additive 1000 ppm, PTZ 20 ppm in acrylic acid, average of three

Molecule	Inhibiting period
CN(C)CCCN [3-(Dimethylamino)-1-propylamine, 3-(dimethylamino)-1-propylamine]	407 min
CC(=O)O [Acetic acid]	347 min
CC#N [Acetonitrile]	335 min
CCCCC(CC)COC(=O)C(C)O (centres unmarked) [Agnique AE 3 2 EH, 2-ethylhexyl lactate]	279 min
CC(O)C(=O)N(C)C (centres unmarked) [Agnique AMD 3 L, N,N-dimethyllactamide]	405 min
CCCCCCCCO [Agnique FOH 898, n-octanol]	332 min
COc1ccc(C(OC)OC)cc1 [Anisacetal, p-(dimethoxymethyl)anisole]	320 min
N#Cc1ccccc1 [Benzonitrile]	334 min
OCc1ccccc1 [Benzyl alcohol]	355 min
CCCCCCCCCC(=O)N(C)C [C10-fatty acid dimethylamide]	335 min
O=C1CCCCC1 [Cyclohexanone]	75 min
O [DI water, deionized water]	327 min
C[S+](C)[O-] [DMSO]	317 min
C1CCC2CCCCC2C1 (centres unmarked) [Decahydronaphthalene]	347 min
CCCCC(CC)COC(=O)CCCCC(=O)OCC(CC)CCCC (centres unmarked) [Di(2-ethylhexyl) adipate]	350 min
CCCCOC(=O)CCCCC(=O)OCCCC [Dibutyl adipate (Cetiol B), Dibutyl adipate]	347 min

Molecule	Inhibiting period
COC(=O)c1ccccc1C(=O)OC [Dimethyl phthalate]	348 min
COC(=O)CCC(=O)OC [Dimethyl succinate]	348 min
CN1CCN(C)C1=O [Dimethylethyleneurea]	313 min
COCC(C)OCC(C)OC (centres unmarked) [Dipropylene glycol dimethyl ether]	339 min
OCCO [Ethylene glycol]	365 min
NCCN [Ethylenediamine]	341 min
COC(=O)c1ccccc1 [Methyl benzoate]	350 min
CCCCC(C)=O [Methyl butyl ketone]	309 min
C1COCCN1 [Morpholine]	410 min
Cn1ccnc1 [N-Methylimidazole]	366 min
CN1CCCC1=O [N-Methylpyrrolidone]	343 min
CCC(=O)O [Propionic acid]	337 min
O=S1(=O)CCCC1 [Sulfolane]	330 min
O=C1CCCO1 [γ-Butyrolactone]	361 min
N-ethyl-N′-methylimidazolium isononanoate [EMIM isononanoate]	379 min
